One series deals with T1, Progesterone receptor (Bos taurus, UniProt Q690N0).
T1 sequence (Q690N0 whole entry): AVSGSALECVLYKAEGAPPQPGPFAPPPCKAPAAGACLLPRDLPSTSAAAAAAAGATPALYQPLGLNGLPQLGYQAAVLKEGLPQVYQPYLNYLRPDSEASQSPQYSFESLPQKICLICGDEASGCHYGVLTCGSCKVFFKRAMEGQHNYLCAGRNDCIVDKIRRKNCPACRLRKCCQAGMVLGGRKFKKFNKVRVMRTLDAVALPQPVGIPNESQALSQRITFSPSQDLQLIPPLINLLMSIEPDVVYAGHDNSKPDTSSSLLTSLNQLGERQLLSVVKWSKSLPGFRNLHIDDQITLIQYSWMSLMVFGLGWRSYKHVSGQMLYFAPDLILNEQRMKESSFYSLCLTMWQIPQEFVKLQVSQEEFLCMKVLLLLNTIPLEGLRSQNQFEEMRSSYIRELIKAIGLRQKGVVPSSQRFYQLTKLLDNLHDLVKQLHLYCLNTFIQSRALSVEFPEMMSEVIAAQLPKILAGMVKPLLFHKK
Description: DRUGMATRIX: Progesterone radioligand binding (ligand: [3H] R-5020). Particulars: Not Active = under 50% inhibition at 10 µM. It is filed as tissue-based, Uterus.

The target in series [1] is Voltage-gated inwardly rectifying potassium channel KCNH2 (Homo sapiens, UniProt Q12809). Conditions: hek293. Note: in other assays of this panel Not Active means under 50% inhibition at 10 µM.
The target of a further series is Cytochrome P450 2E1 (Homo sapiens, UniProt P05181). Conditions: bti-tn-5b1-4. Note: in other assays of this panel Not Active means under 50% inhibition at 10 µM.
The target of the next series is T2, Cytochrome P450 2A6 (Homo sapiens, UniProt P11509). Note: in other assays of this panel Not Active means under 50% inhibition at 10 µM.
T2 sequence (P11509 whole entry): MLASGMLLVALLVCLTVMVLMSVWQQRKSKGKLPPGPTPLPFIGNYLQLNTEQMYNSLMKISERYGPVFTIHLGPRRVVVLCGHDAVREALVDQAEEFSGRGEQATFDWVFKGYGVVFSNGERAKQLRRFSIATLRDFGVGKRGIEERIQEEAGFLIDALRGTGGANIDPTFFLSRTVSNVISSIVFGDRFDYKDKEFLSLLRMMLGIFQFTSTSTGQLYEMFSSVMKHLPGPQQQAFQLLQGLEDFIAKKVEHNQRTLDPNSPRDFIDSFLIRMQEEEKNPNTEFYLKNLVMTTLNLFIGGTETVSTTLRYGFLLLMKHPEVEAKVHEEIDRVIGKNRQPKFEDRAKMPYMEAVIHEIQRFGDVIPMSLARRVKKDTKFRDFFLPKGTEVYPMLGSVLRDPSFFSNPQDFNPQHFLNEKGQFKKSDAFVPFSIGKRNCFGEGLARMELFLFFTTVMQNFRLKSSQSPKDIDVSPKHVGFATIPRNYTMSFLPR
Conditions: bti-tn-5b1-4.

Series [2] addresses Kappa-type opioid receptor (Homo sapiens, UniProt P41145). Description: DRUGMATRIX: Opiate kappa (OP2, KOP) radioligand binding (ligand: [3H] Diprenorphine). It is filed as cell membranes, HEK293, Membrane. Conditions: hek293; Not Active = under 50% inhibition at 10 µM.
For series [3], the target named is T3, Alpha-2A adrenergic receptor (Homo sapiens, UniProt P08913). Note: in other assays of this panel Not Active means under 50% inhibition at 10 µM.
T3 sequence (P08913 whole entry): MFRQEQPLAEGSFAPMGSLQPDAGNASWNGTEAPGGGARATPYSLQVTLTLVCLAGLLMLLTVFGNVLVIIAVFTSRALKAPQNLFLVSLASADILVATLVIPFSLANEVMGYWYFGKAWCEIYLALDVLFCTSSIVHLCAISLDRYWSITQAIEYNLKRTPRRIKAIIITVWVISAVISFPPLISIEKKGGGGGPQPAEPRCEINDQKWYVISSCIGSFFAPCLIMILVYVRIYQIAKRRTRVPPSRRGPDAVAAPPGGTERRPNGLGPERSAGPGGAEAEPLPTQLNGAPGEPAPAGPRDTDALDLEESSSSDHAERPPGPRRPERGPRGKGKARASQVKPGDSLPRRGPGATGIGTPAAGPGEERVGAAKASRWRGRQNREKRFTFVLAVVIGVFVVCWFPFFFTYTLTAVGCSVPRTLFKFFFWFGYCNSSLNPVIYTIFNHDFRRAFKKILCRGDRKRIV
It is filed as cell membranes, Sf9, Membrane. Particulars: for Ki: read-out: Ki.

Another series deals with Mu-type opioid receptor (Homo sapiens, UniProt P35372). Description: DRUGMATRIX: Opiate mu (OP3, MOP) radioligand binding (ligand: [3H] Diprenorphine). It counts as cell membranes, CHO-K1, Membrane. Conditions: cho-k1; Not Active = under 50% inhibition at 10 µM.
Sequence of Mu-type opioid receptor (P35372 whole entry): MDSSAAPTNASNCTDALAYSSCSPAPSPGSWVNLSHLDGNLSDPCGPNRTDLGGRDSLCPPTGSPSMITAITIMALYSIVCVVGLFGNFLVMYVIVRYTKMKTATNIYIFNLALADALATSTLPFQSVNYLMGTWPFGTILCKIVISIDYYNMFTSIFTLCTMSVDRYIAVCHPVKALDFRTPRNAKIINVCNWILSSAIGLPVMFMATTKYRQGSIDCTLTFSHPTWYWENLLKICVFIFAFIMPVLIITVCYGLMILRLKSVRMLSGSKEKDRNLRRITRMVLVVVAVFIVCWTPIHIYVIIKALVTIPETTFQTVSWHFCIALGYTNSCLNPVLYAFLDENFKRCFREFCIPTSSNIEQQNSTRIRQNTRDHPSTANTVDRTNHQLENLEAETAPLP

Sequence of Cytochrome P450 2E1 (P05181 whole entry): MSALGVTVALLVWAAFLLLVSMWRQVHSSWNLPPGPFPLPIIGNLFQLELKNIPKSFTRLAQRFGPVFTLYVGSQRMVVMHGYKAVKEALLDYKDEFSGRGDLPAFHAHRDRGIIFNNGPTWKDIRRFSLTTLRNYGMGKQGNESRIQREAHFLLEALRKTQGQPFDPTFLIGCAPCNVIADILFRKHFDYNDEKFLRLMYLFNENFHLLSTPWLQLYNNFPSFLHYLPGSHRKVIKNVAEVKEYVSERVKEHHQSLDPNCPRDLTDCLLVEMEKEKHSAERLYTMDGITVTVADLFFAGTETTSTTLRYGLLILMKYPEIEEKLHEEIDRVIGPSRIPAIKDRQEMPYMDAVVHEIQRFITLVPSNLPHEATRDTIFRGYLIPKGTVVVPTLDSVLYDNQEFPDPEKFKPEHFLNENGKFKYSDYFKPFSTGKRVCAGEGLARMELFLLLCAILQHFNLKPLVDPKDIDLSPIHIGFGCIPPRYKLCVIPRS
Sequence of Kappa-type opioid receptor (P41145 whole entry): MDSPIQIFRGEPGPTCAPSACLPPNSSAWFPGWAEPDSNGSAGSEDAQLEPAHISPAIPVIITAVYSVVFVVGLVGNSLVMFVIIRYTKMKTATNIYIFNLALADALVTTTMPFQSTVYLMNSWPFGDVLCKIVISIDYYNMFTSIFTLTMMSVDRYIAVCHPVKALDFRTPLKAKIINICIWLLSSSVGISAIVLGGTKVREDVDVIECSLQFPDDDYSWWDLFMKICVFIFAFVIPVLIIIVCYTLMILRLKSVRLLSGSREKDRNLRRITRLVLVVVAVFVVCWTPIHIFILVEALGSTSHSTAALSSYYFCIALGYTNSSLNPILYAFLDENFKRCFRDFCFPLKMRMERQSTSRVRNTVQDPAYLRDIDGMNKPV
Sequence of Voltage-gated inwardly rectifying potassium channel KCNH2 (Q12809 whole entry): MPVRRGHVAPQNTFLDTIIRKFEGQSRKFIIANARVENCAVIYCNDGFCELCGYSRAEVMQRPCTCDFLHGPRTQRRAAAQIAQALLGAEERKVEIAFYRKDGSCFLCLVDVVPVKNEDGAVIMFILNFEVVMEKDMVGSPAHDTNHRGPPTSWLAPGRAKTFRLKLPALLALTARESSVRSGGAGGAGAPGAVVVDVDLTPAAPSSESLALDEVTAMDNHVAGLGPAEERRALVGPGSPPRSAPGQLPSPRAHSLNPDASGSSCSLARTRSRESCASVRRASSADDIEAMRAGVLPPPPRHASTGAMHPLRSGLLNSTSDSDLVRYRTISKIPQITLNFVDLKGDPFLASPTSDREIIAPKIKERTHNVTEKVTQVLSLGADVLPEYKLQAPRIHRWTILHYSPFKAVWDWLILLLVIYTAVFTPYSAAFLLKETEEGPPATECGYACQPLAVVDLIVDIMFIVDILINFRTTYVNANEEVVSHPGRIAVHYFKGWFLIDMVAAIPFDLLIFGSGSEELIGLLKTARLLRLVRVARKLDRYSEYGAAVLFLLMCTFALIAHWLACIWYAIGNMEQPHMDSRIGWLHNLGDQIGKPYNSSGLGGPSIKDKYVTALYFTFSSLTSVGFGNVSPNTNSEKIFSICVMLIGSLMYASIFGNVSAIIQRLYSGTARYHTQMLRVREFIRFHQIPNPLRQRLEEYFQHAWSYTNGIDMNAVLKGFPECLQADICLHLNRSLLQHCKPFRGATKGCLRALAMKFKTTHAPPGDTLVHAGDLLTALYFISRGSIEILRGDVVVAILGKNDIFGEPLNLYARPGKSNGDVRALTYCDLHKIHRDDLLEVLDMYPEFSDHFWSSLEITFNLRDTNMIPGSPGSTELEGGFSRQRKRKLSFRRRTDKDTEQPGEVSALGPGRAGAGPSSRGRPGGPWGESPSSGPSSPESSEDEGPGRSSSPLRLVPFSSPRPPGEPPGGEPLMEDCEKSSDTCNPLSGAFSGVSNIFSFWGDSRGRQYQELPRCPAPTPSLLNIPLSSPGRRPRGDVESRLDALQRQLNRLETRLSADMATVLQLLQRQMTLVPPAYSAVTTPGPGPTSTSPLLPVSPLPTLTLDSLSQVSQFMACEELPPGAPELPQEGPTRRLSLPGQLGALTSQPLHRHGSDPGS

One may read the IC50 as the concentration at which inhibition is half-maximal. For orientation: Ki means a dissociation constant, usually derived from enzyme kinetics or from competition with a known ligand. On to `CC[C@H](C)[C@@H](CO[C@@H](Cc1ccccc1)C(=O)N[C@@H](CCS(C)(=O)=O)C(=O)OC(C)C)NC[C@@H](N)CS`, for which the IC50 result on Progesterone receptor was “Not Active”; in series [1], “Not Active”; against Cytochrome P450 2E1 it was “Not Active”; at Cytochrome P450 2A6 it was “Not Active”; in series [2], “Not Active”; in series [3] (read-out: IC50), 432 nM. The IC50 entry at Mu-type opioid receptor is “Not Active”. The Ki result in series [1] is “Not Active”; on Cytochrome P450 2E1, “Not Active”; at Cytochrome P450 2A6, “Not Active”; in series [3], 162 nM.
As to `Nc1nc(N)c2nc(-c3ccccc3)c(N)nc2n1`, the IC50 result (on Progesterone receptor; in series [1]; on Cytochrome P450 2E1; on Cytochrome P450 2A6; in series [2]; in series [3] (sf9)) was “Not Active” each time. On Mu-type opioid receptor, the IC50 entry is reported as “Not Active”. The Ki entry (in series [1]; on Cytochrome P450 2E1; at Cytochrome P450 2A6) was “Not Active” each time.
For the molecule `O=C(c1ccccc1)c1ccc2n1CCC2C(=O)O` (configuration not stated) [KETOROLAC], the IC50 result (on Progesterone receptor; in series [1]; against Cytochrome P450 2E1; at Cytochrome P450 2A6; in series [2]; in series [3] (sf9)) was “Not Active” in each case. For the same molecule, the IC50 result at Mu-type opioid receptor was “Not Active”. Further, the Ki entry (in series [1]; at Cytochrome P450 2E1; on Cytochrome P450 2A6) was “Not Active” in each case.
Turning to `CCOC(=O)C1=C(C)NC(C)=C(C(=O)OCC)C1c1ccccc1/C=C/C(=O)OC(C)(C)C` [LACIDIPINE], the IC50 entry (on Progesterone receptor; in series [1]; on Cytochrome P450 2E1; against Cytochrome P450 2A6; in series [2]; in series [3] (sf9)) was “Not Active” each time. Besides, the IC50 entry at Mu-type opioid receptor was “Not Active”. The Ki entry (in series [1]; at Cytochrome P450 2E1; at Cytochrome P450 2A6) was “Not Active” throughout.
As to `CC(O)C(=O)O` (configuration not stated) [LACTIC ACID], the half-inhibitory concentration (IC50) result (at Progesterone receptor; in series [1]; against Cytochrome P450 2E1; against Cytochrome P450 2A6; in series [2]; in series [3] (sf9)) was “Not Active” throughout. Moreover, the IC50 result on Mu-type opioid receptor is “Not Active”. Moreover, the Ki entry (in series [1]; at Cytochrome P450 2E1; at Cytochrome P450 2A6) was “Not Active” in each case.
On to `CC(C)(C)NC[C@H](O)COc1cccc2c1CCCC2=O` [LEVOBUNOLOL], for which the IC50 result (at Progesterone receptor; in series [1]; at Cytochrome P450 2E1; at Cytochrome P450 2A6; in series [2]; in series [3] (sf9)) was “Not Active” in each case. Moreover, the IC50 result at Mu-type opioid receptor is recorded as “Not Active”. The Ki entry (in series [1]; at Cytochrome P450 2E1; at Cytochrome P450 2A6) was “Not Active” throughout.
Regarding `CO[C@@H]1[C@@H](OC)[C@H](C)[C@@](O)(CC(=O)O)O[C@H]1[C@H](C)[C@H]1O[C@@]2(CC[C@@](C)([C@H]3CC[C@@](C)([C@@H]4O[C@@H]([C@H]5O[C@](C)(O)[C@H](C)C[C@@H]5C)C[C@@H]4O[C@@H]4C[C@H](OC)[C@@H](OC)[C@H](C)O4)O3)O2)C[C@H](O)[C@H]1C.N` [MADURAMICIN], the IC50 entry (on Progesterone receptor; in series [1]; on Cytochrome P450 2E1; at Cytochrome P450 2A6; in series [2]; in series [3] (sf9)) was “Not Active” in each case. For the same molecule, the IC50 entry on Mu-type opioid receptor is recorded as “Not Active”. For the same molecule, the Ki entry (in series [1]; on Cytochrome P450 2E1; on Cytochrome P450 2A6) was “Not Active” throughout.
Regarding `COC(=O)Nc1nc2ccc(C(=O)c3ccccc3)cc2[nH]1` [MEBENDAZOLE], the IC50 entry (on Progesterone receptor; in series [1]; at Cytochrome P450 2E1; against Cytochrome P450 2A6; in series [2]; in series [3] (sf9)) was “Not Active” throughout. For the same molecule, the IC50 entry on Mu-type opioid receptor was “Not Active”. In addition, the inhibition constant Ki entry (in series [1]; at Cytochrome P450 2E1; on Cytochrome P450 2A6) was “Not Active” throughout.
Consider `Cc1ccc(Cl)c(Nc2ccccc2C(=O)O)c1Cl` [MECLOFENAMIC ACID], for which the IC50 result (on Progesterone receptor; in series [1]; against Cytochrome P450 2E1; at Cytochrome P450 2A6; in series [2]; in series [3] (sf9)) was “Not Active” throughout. In addition, the IC50 result on Mu-type opioid receptor is recorded as “Not Active”. The Ki entry (in series [1]; on Cytochrome P450 2E1; on Cytochrome P450 2A6) was “Not Active” throughout.
In the case of `CC(=O)O[C@]1(C(C)=O)CC[C@H]2[C@@H]3C[C@H](C)C4=CC(=O)CC[C@]4(C)[C@H]3CC[C@@]21C` [MEDROXYPROGESTERONE ACETATE], the IC50 was 2.25 nM on Progesterone receptor (read-out: IC50); “Not Active” in series [1]; “Not Active” on Cytochrome P450 2E1; “Not Active” against Cytochrome P450 2A6; “Not Active” in series [2]; “Not Active” in series [3] (sf9). Besides, at Mu-type opioid receptor, the IC50 entry is recorded as “Not Active”. Further, the Ki was 0.293 nM on Progesterone receptor (read-out: Ki), “Not Active” in series [1], “Not Active” at Cytochrome P450 2E1 and “Not Active” at Cytochrome P450 2A6.
As for `Cc1cnc(NC(=O)C2=C(O)c3ccccc3S(=O)(=O)N2C)s1` [MELOXICAM], the IC50 result (on Progesterone receptor; in series [1]; on Cytochrome P450 2E1; against Cytochrome P450 2A6; in series [2]; in series [3] (sf9)) was “Not Active” each time. In addition, the IC50 result on Mu-type opioid receptor was “Not Active”. Besides, the Ki result (in series [1]; at Cytochrome P450 2E1; on Cytochrome P450 2A6) was “Not Active” in each case.
For the molecule `CCN(CC)CCNC(=O)c1cc(Cl)c(N)cc1OC` [METOCLOPRAMIDE], the IC50 result is “Not Active” on Progesterone receptor; “Not Active” in series [1]; “Not Active” on Cytochrome P450 2E1; “Not Active” on Cytochrome P450 2A6; “Not Active” in series [2]; 2720 nM in series [3] (read-out: IC50). Moreover, the IC50 result on Mu-type opioid receptor is “Not Active”. In addition, the Ki entry is “Not Active” in series [1], “Not Active” at Cytochrome P450 2E1, “Not Active” on Cytochrome P450 2A6 and 1020 nM in series [3].
Turning to `CO[C@@]12[C@H](COC(N)=O)C3=C(C(=O)C(C)=C(N)C3=O)N1C[C@@H]1N[C@@H]12` [MITOMYCIN], the IC50 result (at Progesterone receptor; in series [1]; on Cytochrome P450 2E1; on Cytochrome P450 2A6; in series [2]; in series [3] (sf9)) was “Not Active” throughout. For the same molecule, the IC50 entry at Mu-type opioid receptor is “Not Active”. Besides, the Ki result (in series [1]; on Cytochrome P450 2E1; at Cytochrome P450 2A6) was “Not Active” in each case.
Take `Cc1ccc(S(=O)(=O)NC(=O)NN2CCCCCC2)cc1` [TOLAZAMIDE]: the IC50 entry (on Progesterone receptor; in series [1]; in series [2]; in series [3] (sf9); at Mu-type opioid receptor) was “Not Active” in each case. The Ki result in series [1] is reported as “Not Active”.
As for `CC1=C(/C=C/C(C)=C/C=C/C(C)=C/C(=O)O)C(C)(C)CCC1` [TRETINOIN], the IC50 result (at Progesterone receptor; on Cytochrome P450 2E1; at Cytochrome P450 2A6; in series [2]; in series [3] (sf9); on Mu-type opioid receptor) was “Not Active” throughout. Moreover, the Ki entry on Cytochrome P450 2E1 and on Cytochrome P450 2A6 was “Not Active” throughout.

Values taken from ChEMBL document CHEMBL1909046, “DrugMatrix in vitro pharmacology data”.
